In experiment [1] the target is T1, orexin-2 receptor (hOX2R) (Homo sapiens, UniProt O43614).
T1 construct: expressed in transfected cells; host or cells: Chinese hamster ovary (CHO) cells
T1 sequence (O43614 1-444): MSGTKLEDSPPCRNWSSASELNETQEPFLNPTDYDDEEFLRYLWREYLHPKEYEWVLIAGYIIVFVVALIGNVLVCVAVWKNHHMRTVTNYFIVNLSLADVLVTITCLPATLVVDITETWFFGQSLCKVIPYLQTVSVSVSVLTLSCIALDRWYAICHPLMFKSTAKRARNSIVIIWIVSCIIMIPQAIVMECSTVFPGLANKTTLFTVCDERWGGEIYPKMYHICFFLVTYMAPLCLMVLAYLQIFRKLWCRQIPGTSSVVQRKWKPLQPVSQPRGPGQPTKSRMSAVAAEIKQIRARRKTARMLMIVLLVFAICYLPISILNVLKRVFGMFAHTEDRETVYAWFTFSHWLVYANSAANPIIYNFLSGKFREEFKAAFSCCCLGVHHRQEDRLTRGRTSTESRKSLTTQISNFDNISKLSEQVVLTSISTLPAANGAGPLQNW
The experiment can be described thus: Measurement of orexin antagonistic activity (intracellular Ca2+ fluorescence, FDSS) on hOX2R. Format: cell-based. The note with it: CHO cells forcibly expressing hOX2R; Fluo-4AM; ligand peptide (substituted human orexin-A) 3 nM; compound preincubated 30 minutes; read-out: IC50 Value OX2. The procedure:
(§1) The antagonistic activities of the test compounds on human orexin-1 receptor (hOX1R) and orexin-2 receptor (hOX2R) were measured by modifying from the method described in literature (Toshikatsu Okumura et al., Biochemical and Biophysical Research Communications, 280, 976-981, 2001). Chinese hamster ovary (CHO) cells forcibly expressing the hOX1R and hOX2R were seeded into a 96 well Black clear bottom plate (Nunc) at 20,000 cells per well, which were cultured in Ham's F-12 medium containing 0.1 mM MEM non-essential amino acids, 0.5 mg/mL G418, 10% fetal bovine serum (all by Invitrogen) for 16 hours under the conditions of 37° C., 5% CO2. After removing the medium, 100 μL of 0.5 μM Fluo-4AM ester (Dojin) in an assay buffer (25 mM HEPES (Dojin), Hank's balanced salt solution (Invitrogen), 0.1% bovine serum albumin, 2.5 mM probenecid, 200 μg/mL Amaranth (all by Sigma-Aldrich), pH 7.4) was added and the cells were incubated for 60 minutes at 37° C., 5% CO2. After removing the assay buffer containing fluo-4AM ester, the test compound was dissolved in dimethyl sulfoxide to be 10 mM and diluted with the assay buffer, 150 μL, of which was added and incubated for 30 minutes.
(§2) The reaction was measured for the fluorescence intensity of each well every second for 3 minutes using Functional Drug Screening System (FDSS; Hamamatsu Photonics K.K.), and the antagonistic activity was determined using the maximum fluorescence intensity as the indicator of intracellular Ca2+ concentration.

Experiment [2] deals with T2, human orexin-1 receptor (hOX1R) (Homo sapiens, UniProt O43613).
T2 construct: expressed in transfected cells; host or cells: Chinese hamster ovary (CHO) cells
T2 sequence (O43613 1-425): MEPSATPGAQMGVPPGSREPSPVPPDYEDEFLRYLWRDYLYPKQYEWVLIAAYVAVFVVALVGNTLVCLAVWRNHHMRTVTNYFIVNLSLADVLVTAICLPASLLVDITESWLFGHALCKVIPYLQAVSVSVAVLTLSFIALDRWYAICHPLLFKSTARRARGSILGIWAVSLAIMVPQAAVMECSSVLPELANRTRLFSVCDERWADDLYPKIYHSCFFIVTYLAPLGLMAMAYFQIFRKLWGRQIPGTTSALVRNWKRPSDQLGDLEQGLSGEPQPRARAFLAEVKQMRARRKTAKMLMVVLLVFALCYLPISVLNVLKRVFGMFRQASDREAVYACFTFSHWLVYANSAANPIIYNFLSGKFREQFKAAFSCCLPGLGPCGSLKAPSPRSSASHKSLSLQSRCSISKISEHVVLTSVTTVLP
The experiment can be described thus: Measurement of orexin antagonistic activity (intracellular Ca2+ fluorescence, FDSS) on hOX1R. The class given is cell-based. The following applies: CHO cells forcibly expressing hOX1R; Fluo-4AM; ligand peptide (substituted human orexin-A) 300 pM; compound preincubated 30 minutes; read-out: IC50 Value OX1. As for the experimental part:
as §1, §2

Structures are written as SMILES. pIC50: −log10 of the molar value.

Take `CCN(C(=O)c1nc(C)ccc1-n1nccn1)[C@@H](C)Cc1noc(-c2ccc(F)cn2)n1` [Example 58, N-Ethyl-N-{(2S)-1-[5-(5-fluoropyridin-2-yl)-1,2,4-oxadiazol-3-yl]propan-2-yl}-6-methyl-3-(2H-1,2,3-triazol-2-yl) pyridine-2-carboxamide]: the pIC50 is 5.79 in experiment [1] and 7.65 in experiment [2].
Consider `Cc1ccc(-n2nccn2)c(C(=O)N(C)[C@@H](C)Cn2cc(-c3ccc(F)c(F)c3)cn2)n1` [Example 29, N-{(2S)-1-[4-(3,4-Difluorophenyl)-1H-pyrazol-1-yl]propan-2-yl}-N,6-dimethyl-3-(2H-1,2,3-triazol-2-yl)pyridine-2-carboxamide], for which the pIC50 was 7.59 in experiment [1] and 8.00 in experiment [2].
Taken in the same sequence, the figures for `CCN(C(=O)c1cc(F)ccc1-c1ncccn1)[C@H](C)Cn1ccc(-c2ccc(F)cc2)n1` [Example 12, N-Ethyl-5-fluoro-N-[(2R)-1-[3-(4-fluorophenyl)-1H-pyrazol-1-yl]propan-2-yl]-2-(pyrimidin-2-yl)benzamide] were 6.24 and 6.44.
Take `CCN(C(=O)c1cc(C)ccc1-n1nccn1)[C@@H](C)Cn1cc(-c2ccc(F)c(OC)c2)nn1` [Example 99, N-Ethyl-N-{(2S)-1-[4-(4-fluoro-3-methoxyphenyl)-1H-1,2,3-triazol-1-yl]propan-2-yl}-5-methyl-2-(2H-1,2,3-triazol-2-yl)benzamide]: the figures for the pIC50 in experiment [1] and in experiment [2] were 8.82 and 8.74, respectively.
As to `CCN(C(=O)c1cc(C)ccc1-c1ncccn1)[C@@H](C)Cc1noc(-c2ccc(F)cn2)n1` [Example 48, N-Ethyl-N-{(2S)-1-[5-(5-fluoropyridin-2-yl)-1,2,4-oxadiazol-3-yl]propan-2-yl}-5-methyl-2-(pyrimidin-2-yl)benzamide], the negative-log IC50 (pIC50) in experiment [1] is 7.55; in experiment [2], 9.05.
For `CCN(C(=O)c1nc(C)ccc1-n1nccn1)[C@@H](C)Cn1ccc(-c2ccc(F)c(F)c2)n1` [Example 16, N-[(2S)-1-[3-(3,4-Difiuorophenyl)-1H-pyrazol-1-yl]propan-2-yl]-N-ethyl-6-methyl-3-(2H-1,2,3-triazol-2-yl)pyridine-2-carboxamide], in that order: 8.01 and 8.74.
Turning to `CCN(C(=O)c1cc(C)ccc1-n1nccn1)[C@@H](C)Cc1nnc(-c2ccc(F)cc2)o1` [Example 76, N-Ethyl-N-{(2S)-1-[5-(4-fluorophenyl)-1,3,4-oxadiazol-2-yl]propan-2-yl}-5-methyl-2-(2H-1,2,3-triazol-2-yl)benzamide], the pIC50 was 7.22 in experiment [1] and 9.00 in experiment [2].
For `CCN(C(=O)c1cc(F)ccc1-n1nccn1)[C@@H](C)Cn1cc(-c2ccc(F)cn2)nn1` [Example 78, N-Ethyl-5-fluoro-N-{(2S)-1-[4-(5-fluoropyridin-2-yl)-1H-1,2,3-triazol-1-yl]propan-2-yl}-2-(2H-1,2,3-triazol-2-yl)benzamide], in that order: 6.23 and 7.68.
Taken in the same sequence, the figures for `CCN(C(=O)c1cc(C)ccc1-n1nccn1)[C@@H](C)Cn1nnc(-c2ccc(F)cc2)n1` [Example 62, N-Ethyl-N-{(2S)-1-[5-(4-fluorophenyl)-2H-tetrazol-2-yl]propan-2-yl}-5-methyl-2-(2H-1,2,3-triazol-2-yl)benzamide] were 8.64 and 9.15.
With `CCN(C(=O)c1cc(C)ccc1-n1nccn1)[C@@H](C)Cn1nnc(-c2ccc(F)cn2)n1` [Example 85, N-Ethyl-N-{(2S)-1-[5-(5-fluoropyridin-2-yl)-2H-tetrazol-2-yl]propan-2-yl}-5-methyl-2-(2H-1,2,3-triazol-2-yl)benzamide], the pIC50 in experiment [1] is 7.56; in experiment [2] it was 8.89.
Taken in the same sequence, the figures for `CCN(C(=O)c1nc(C)ccc1-n1nccn1)[C@@H](C)Cc1noc(-c2ccc(F)cc2)n1` [Example 49, N-Ethyl-N-{(2S)-1-[5-(4-fluorophenyl)-1,2,4-oxadiazol-3-yl]propan-2-yl}-6-methyl-3-(2H-1,2,3-triazol-2-yl)pyridine-2-carboxamide] were 7.49 and 8.96.
For the compound `CCN(C(=O)c1cc(C)ccc1-n1nccn1)[C@@H](C)Cn1cc(-c2ccc(F)cn2)cn1` [Example 25, N-Ethyl-N-{(2S)-1-[4-(5-fluoropyridin-2-yl)-1H-pyrazol-1-yl]propan-2-yl}5-methyl-2-(2H-1,2,3-triazol-2-yl) benzamide], the negative logarithm of the IC50 (pIC50) in experiment [1] was 8.19; in experiment [2], 9.15.
Regarding `CCN(C(=O)c1cc(C)ccc1-c1ncccn1)[C@@H](C)Cn1cc(-c2ccc(F)cn2)nn1` [Example 79, N-Ethyl-N-{(2S)-1-[4-(5-fluoropyridin-2-yl)-1H-1,2,3-triazol-1-yl]propan-2-y}-5-methyl-2-(pyrimidin-2-yl)benzamide], the pIC50 in experiment [1] was 6.37; in experiment [2], 7.20.
Turning to `CCN(C(=O)c1ccccc1-c1ncccn1)[C@@H](C)Cn1ccc(-c2ccc(F)cn2)n1` [Example 7, N-Ethyl-N-{(2S)-1-[3-(5-fluoropyridin-2-yl)-1H-pyrazol-1-yl]propan-2-yl}-2-(pyrirnidin-2-yl) benzamide], the results for the pIC50 in experiment [1] and in experiment [2] were 7.37 and 8.17, respectively.
On to `Cc1ccc(-n2nccn2)c(C(=O)N(CCO)[C@@H](C)Cn2cc(-c3ccc(F)cc3)nn2)c1` [Example 73, N-{(2S)-1-[4-(4-Fluorophenyl)-1H-1,2,3-triazol-1-yl]propan-2-yl}-N-(2-hydroxyethyl)-5-methyl-2-(2H-1,2,3-triazol-2-yl)benzamide], for which the pIC50 is 8.24 in experiment [1] and 7.10 in experiment [2].
As to `CC[C@@H](Cn1ccc(-c2ccc(F)cn2)n1)N(C)C(=O)c1cc(C)ccc1-n1nccn1` [Example 24, N-{(2S)-1-[3-(5-Fluoropyridin-2-yl)-1H-pyrazol-1-yl]butan-2-yl}-N,5-dimethyl-2-(2H-1,2,3-triazol-2-yl) benzamide], the values for the pIC50 in experiment [1] and in experiment [2] were 7.38 and 8.01, respectively.
In the case of `CCN(C(=O)c1nc(C)ccc1-n1nccn1)[C@@H](C)Cn1ccc(-c2ccc(F)cc2)n1` [Example 3, N-Ethyl-N-[(2S)-1-[3-(4-fluorophenyl)-1H-pyrazol-1-yl]propan-2-yl]-6-methyl-3-(2H-1,2,3-triazol-2-yl) pyridine-2-carboxamide], the results for the pIC50 in experiment [1] and in experiment [2] were 8.35 and 9.00, respectively.
For the compound `CCN(C(=O)c1cc(C)ccc1-n1nccn1)[C@@H](C)Cn1cc(-c2ccccn2)nn1` [Example 94, N-Ethyl-5-methyl-N-{(2S)-1-[4-(pyridin-2-yl)-1H-1,2,3-triazol-1-yl]propan-2-yl}-2-(2H-1,2,3-triazol-2-yl) benzamide], the pIC50 in experiment [1] was 6.96; in experiment [2], 8.03.
With `CCN(C(=O)c1nc(C)ccc1-n1nccn1)[C@@H](C)Cn1nnc(-c2ccc(F)cc2)n1` [Example 65, N-Ethyl-N-{(2S)-1-[5-(4-fluorophenyl)-2H-tetrazol-2-yl]propan-2-yl}-6-methyl-3-(2H-1,2,3-triazol-2-yl)pyridine-2-carboxamide], the figures for the pIC50 in experiment [1] and in experiment [2] were 6.84 and 8.89, respectively.
For `CCN(C(=O)c1ccccc1-n1nccn1)[C@@H](C)Cc1noc(-c2ccc(F)cc2)n1` [Example 51, N-Ethyl-N-{(2S)-1-[5-(4-fluorophenyl)-1,2,4-oxadiazol-3-yl]propan-2-yl}-2-(2H-1,2,3-triazol-2-yl)benzamide], in that order: 8.03 and 9.70.

The pIC50 is the negative decadic logarithm of the IC50, by convention in mol/L.

Source of the values: US20150166523A1, “BRANCHED CHAIN ALKYL HETEROAROMATIC RING DERIVATIVE” (TAISHO PHARMACEUTICAL CO., LTD., priority 2012, published 2015).
